Test results taken from patent US20110212235A1, “ANTIMICROBIAL SALT SOLUTIONS FOR CHEESE PROCESSING APPLICATIONS” (priority 2006, published 2011).
Marks after values point to notes of the source that are not given here.

Key:
Format in all cases: cell-based
[1] = tested on: L. monocytogenes; test: L. monocytogenes kill in cold salt/acid/surfactant solutions; conditions: for Population at 4 hours: concentrations stated in the solution, no added acid, average of two runs where starred; for L. monocytogenes, Time 4 Hours / L. monocytogenes, Time 0: cold
Procedure: To study chilling brine application of the current embodiment, tests were run on 17% by weight solutions of formulas consisting of between 0.3% and 6.0% citric acid, between 50 and 500 ppm SLS, and between 94% and 99.7% sodium chloride. Test solutions were cooled to −7° C. and inoculated with several strains of L. monocytogenes.
An experiment was run to determine if solutions containing sodium chloride, sodium lauryl sulfate, and various acids would kill L. monocytogenes at cold temperatures. […] A 1.0 ml aliquot of this suspension was added to 100 ml of cold (−7° C.+2° C.) test solution and mixed well, providing an initial inoculum of 10^3 CFU/ml. The test solutions were incubated at −7° C.+/−2° C. for the duration of the experiment. At intervals of 0, 4, and 24 hours the L. monocytogenes populations in the test solutions were determined on Modified Oxford agar (MOX). MOX plates were incubated at 35° C.+/−2° C. for approximately 48 hours. Colonies were then counted and compared to the initial inoculum counts.
Each test solution was a 17% by weight solution of the listed formula prepared in soft water.
In another experiment, 17% by weight solutions of formulas containing various levels of sodium chloride, citric acid, and sodium lauryl sulfate were tested for effectiveness in killing L. monocytogenes at cold temperatures. The same test procedure was used as described above, except test solutions were plated on MOX with a Thin Agar Overlay of TSA (to aid in the recovery of injured cells).
In another experiment, two sets of solutions were tested. The first set (samples 1-12 in Table 10 below) was prepared in hard tap water and contained about 17.0% by mass of the formulation. These samples were inoculated with 10^3 CFU/ml L. monocytogenes by the same procedure as described above. A second set of samples was prepared from brine taken from a ready-to-eat meat processing operation. The recirculated brine had been used to chill packaged meat for one week. After a week of use the brine typically contains various types of aerobic psychotropic and mesophilic bacteria. This experiment was done in order to determine if the additives would kill the microorganisms naturally occurring in actual process brine from a plant. Since the spent chill brine samples already contained NaCl citric acid and/or SLS was added to provide an effective concentration of additive. One set of these samples (samples 13-17) were inoculated with 10^3 L. monocytogenes and the other set (samples 18-22) contained only the naturally occurring organisms in the spent chill brine. […] Other antimicrobials, such as quaternary ammonium compounds can lose significant activity in hard water, often necessitating further additives, such as EDTA as a chelating agent, to maintain antimicrobial activity.
Another set of experiments was done in order to determine the effectiveness of different acids and different types of surfactants in the antimicrobial salt formulations. In one experiment, test solutions containing ˜17% by weight of formulas containing various levels of sodium chloride, 100 ppm sodium lauryl sulfate, and various levels of different acids were tested for effectiveness in killing L. monocytogenes at cold temperatures. The same test procedure was used as described above (test solutions were plated on MOX TAL (Modified Oxford Medium with a Thin Agar Layer) with TSA). The controls were a solution of pure NaCl, a solution of a blend of 100 ppm SLS in NaCl, and a solution of a blend of 0.5% citric acid, 100 ppm SLS, and 99.5% NaCl.

[2] = tested on: Escherichia coli ATCC 11229; test: E. coli kill in acid/SLS solutions with and without salt; conditions: for % Kill of E. Coli: 0.6409 grams malic acid and 0.0107 grams sodium lauryl sulfate per liter, with 107.0 grams of the listed salt or without; for kill of E. coli by solution containing only the salt: only the salt and no other ingredient
Procedure: Ten percent by weight solutions were prepared of a formula of 0.6% citric or malic acid, 100 ppm SLS, and 99.4% sodium chloride. Solutions were also prepared containing an identical concentration of acid and SLS but no sodium chloride. […] A 1.0 ml aliquot of this suspension was added to 100 ml of test solution at room temperature and mixed well, providing an initial inoculum of 10^3 CFU/ml. After 30 minutes, the E. coli populations were enumerated by plating on tryptic soy agar (TSA), making serial dilutions as necessary in BPBW. Plates were incubated at 35° C.+/−2° C. for approximately 24 hours. Colonies were then counted and compared to the initial inoculum counts.
A test was run to determine if salts other than sodium chloride would show a synergistic antimicrobial effect with an acid and sodium lauryl sulfate. Solutions containing 0.6409 grams malic acid and 0.0107 grams sodium lauryl sulfate per liter were prepared with and without 107.0 grams of various salts (added on an anhydrous basis). Solutions were inoculated with E. coli described above and the amount of bacterial kill was measured to determine if the added salt caused an increase in the effectiveness of the acid/surfactant active ingredients.

[3] = tested on: L. monocytogenes; test: L. monocytogenes cocktail challenge of surfactant/salt solutions at 2° C.; conditions: after 4 hours in solution at 2° C.
Procedure: Tests were generally run according to the following procedure:
(§1) 1. Inoculate a separate tube containing approximately 10 ml of Brain Heart infusion (BHI) broth with the following L. monocytogenes strains: H2446 (CDC Global Standard), Scott A (serotype 4b), 12243 (serotype 1/2a), and two strains isolated from the environment of a cooked meat and poultry facility, designated WP1, and WP4. Incubate the tubes at least 5 days at 7-10° C.+/−2° C. 2. Assume the growth to be 10^9 cfu/ml. Serially dilute each culture in cold (˜7° C.). Butterfield's Phosphate Buffered Water (PBW) to 10^8 cfu/ml (1:10). Since five cultures of L. monocytogenes are being used as a cocktail, begin the dilution series using 2.20 ml of each culture added to 99 ml of PBW. 3. Plate (−6, −7, −8) the diluted culture to get the starting count of the inoculum on Modified Oxford medium (MOX) using a thin agar overlay (TAL) technique (overlay with Trypticase Soy Agar [TSA]) to revive injured cells. 4. Add 1 ml of the diluted cocktail to 100 ml of cold test solution. 5. Mix the solutions well. 6. Determine the L. monocytogenes population at time 0 and 4 hours. Plate −1 (0.1 ml on 1 plate), −2, −3, and −4 dilutions using spread plates on MOX TAL with TSA. 7. Incubate the test solutions at test temperature for the duration of the experiment. 8. Incubate the MOX TAL with TSA plates at 20° C.+/−2° C. for 72+/−3 hours. Count representative colonies, which are black, and multiply by the dilution factor.

[4] = tested on: L. monocytogenes; test: L. monocytogenes challenge in beef plant chill brine at 4° C.; conditions: after 4 hours at 4° C.; surfactant added to beef plant brine, approximately 17% sodium chloride
Procedure: as §1
Several tests were carried out to determine the effectiveness of embodiments according to the invention in meat processing chill brines. In one experiment, brine was taken at the end of a production week from a brine chiller used in a ready to eat, cooked beef production line. The sodium chloride concentration in this brine was approximately 17%. Samples of the brine with and without added surfactant were inoculated with a cocktail of L. monocytogenes as per the procedure described above, incubated at 4° C. for four hours, and then plated to determine L. monocytogenes survival.

[5] = Table 2, different salts and salt concentrations
[6] = 17% by weight of formula of 99.7% sodium chloride, 0.3% citric acid, 500 ppm of listed surfactant

[Cl-].[Na+] [sodium chloride, reference compound]
log reduction of the L. monocytogenes over a 24-hour period ([1]; brine of sodium chloride alone, 24-hour period): < 1 log
% Kill of E. Coli [2]: 78%
kill of the test microorganisms ([2]; 10% solution of pure sodium chloride): does not provide any significant kill

sulfonated oleic acid, Na salt [50 ppm sulfonated oleic acid, Na salt]
L. mono count ([3]; Table 1): 1.3 × 10^5 cfu/mL

sodium olefin sulfonate [25 ppm sodium olefin sulfonate]
L. mono count [4]: 60 cfu/mL

O=S(=O)([O-])[O-].[K+].[K+] [Potassium sulfate]
% Kill of E. Coli [2]: 34%
kill of E. coli by solution containing only the salt [2]: no bacterial kill

nonylphenol ethoxylate [25 ppm nonylphenol ethoxylate]
L. mono count [4]: <10 cfu/mL

fatty alkanolaminde [12.5 ppm fatty alkanolaminde]
L. mono count [4]: 40 cfu/mL

[Ca+2].[Cl-].[Cl-] [Calcium chloride]
% Kill of E. Coli [2]: 55%
kill of E. coli by solution containing only the salt [2]: 26%

O=C[O-].[Na+] [20% Sodium Formate, Sodium Formate, reference compound]
L. mono count [3, 5]: 3.6 × 10^5 cfu/mL

CCCCCCCCCCCCOS(=O)(=O)[O-].[Na+] [50 ppm SLS (no NaCl), sodium lauryl sulfate]
Population at 4 hours [1]: 3.90* log cfu/mL

nonylphenol ethoxylate [12.5 ppm nonylphenol ethoxylate]
L. mono count [4]: 20 cfu/mL

sodium xylene sulfonate
L. monocytogenes, Time 4 Hours [1, 6]: 820 CFU/ml
L. monocytogenes, Time 0 [1, 6]: 910 CFU/ml

CC(=O)[O-].[K+] [20% Potassium Acetate, Potassium Acetate, reference compound]
L. mono count [3, 5]: 4.2 × 10^5 cfu/mL

sodium linear alkylbenzene sulfonate
L. mono count [4]: <10 cfu/mL
L. mono count ([3]; Table 1): 5.9 × 10^3 cfu/mL

lauramine oxide [50 ppm lauramine oxide]
L. mono count [4]: <10 cfu/mL
L. mono count ([3]; Table 1): 3.6 × 10^3 cfu/mL
L. mono count [3, 5]: 5.8 × 10^4 cfu/mL

fatty alkanolamide
L. monocytogenes, Time 4 Hours [1, 6]: 0 CFU/ml
L. monocytogenes, Time 0 [1, 6]: 470 CFU/ml

O=S(=O)([O-])[O-].[Na+].[Na+] [Sodium sulfate]
% Kill of E. Coli [2]: 87%
kill of E. coli by solution containing only the salt [2]: no bacterial kill

alpha-olefin sulfonate
L. monocytogenes, Time 4 Hours [1, 6]: 0 CFU/ml
L. monocytogenes, Time 0 [1, 6]: 370 CFU/ml

fatty alkanolaminde [25 ppm fatty alkanolaminde]
L. mono count [4]: <10 cfu/mL

[Cl-].[Cl-].[Mg+2] [Magnesium chloride]
% Kill of E. Coli [2]: 56%
kill of E. coli by solution containing only the salt [2]: 61%

sodium linear alkylbenzene [25 ppm sodium linear alkylbenzene]
L. mono count [4]: <10 cfu/mL

sodium salt of sulfonated oleic acid
L. monocytogenes, Time 4 Hours [1, 6]: 0 CFU/ml
L. monocytogenes, Time 0 [1, 6]: 240 CFU/ml

[Cl-].[Na+] [20% NaCl (control), sodium chloride, reference compound]
Population at 4 hours [1]: 4.32 log cfu/mL
L. mono count ([3]; Table 1): 1.0 × 10^5 cfu/mL
L. mono count [3, 5]: 4.0 × 10^5 cfu/mL

O=S(=O)([O-])[O-].[Mg+2] [Magnesium sulfate]
% Kill of E. Coli [2]: 93%
kill of E. coli by solution containing only the salt [2]: 10%

sodium olefin sulfonate [12.5 ppm sodium olefin sulfonate]
L. mono count [4]: 110 cfu/mL

nonylphenol ethoxylate [50 ppm nonylphenol ethoxylate]
L. mono count [4]: <10 cfu/mL
L. mono count ([3]; Table 1): 1.3 × 10^5 cfu/mL

nonylphenol ethoxylate
L. monocytogenes, Time 4 Hours [1, 6]: 0 CFU/ml
L. monocytogenes, Time 0 [1, 6]: 460 CFU/ml

C12(branched) sodium diphenyl oxide disulfonate
L. mono count [3, 5]: 3.1 × 10^4 cfu/mL

alkylpolyglucoside
L. monocytogenes, Time 4 Hours [1, 6]: 0 CFU/ml
L. monocytogenes, Time 0 [1, 6]: 280 CFU/ml

fatty alkanolamide [50 ppm fatty alkanolamide]
L. mono count [4]: <10 cfu/mL
L. mono count ([3]; Table 1): 1.1 × 10^4 cfu/mL

polyoxyethylene-polyoxypropylene block polymer
L. monocytogenes, Time 4 Hours [1, 6]: 610 CFU/ml
L. monocytogenes, Time 0 [1, 6]: 820 CFU/ml

[Cl-].[K+] [Potassium chloride]
% Kill of E. Coli [2]: 18%
kill of E. coli by solution containing only the salt [2]: no bacterial kill

sodium linear alkyl-benzene sulfonate
L. monocytogenes, Time 4 Hours [1, 6]: 0 CFU/ml
L. monocytogenes, Time 0 [1, 6]: 490 CFU/ml

dodecyl diphenyl oxide disulfonate
L. monocytogenes, Time 4 Hours [1, 6]: 0 CFU/ml
L. monocytogenes, Time 0 [1, 6]: 0 CFU/ml

[Cl-].[Na+] [Salt control, reference compound]
L. monocytogenes, Time 4 Hours ([1]; ˜17% solution of NaCl, 100 ppm SLS and listed acid to pH ˜3.6): 1380 CFU/ml
L. monocytogenes, Time 0 ([1]; ˜17% solution of NaCl, 100 ppm SLS and listed acid to pH ˜3.6, MOX TAL): 850 CFU/ml

CC(=O)[O-].[Na+] [20% Sodium Acetate, Sodium Acetate, reference compound]
L. mono count [3, 5]: 3.0 × 10^4 cfu/mL

lauramine oxide
L. monocytogenes, Time 4 Hours [1, 6]: 0 CFU/ml
L. monocytogenes, Time 0 [1, 6]: 2 CFU/ml

alkyl polyglucoside [50 ppm alkyl polyglucoside]
L. mono count ([3]; Table 1): 9.6 × 10^4 cfu/mL
